Earlier results, collected in patent publication US20230218514A1, “FLOATING SUSTAINED RELEASE TABLET FORMULATION OF DROXIDOPA AND METHOD THEREOF” (priority 2022, published 2023).

Key:
dogs = settings: dog, in vivo
rats = settings: rat, in vivo
monkeys = settings: monkey, in vivo
[1] = not given; remark: listed apart in the source
[2] = not given; remark: listed apart in the source
mice = settings: mouse, in vivo

N[C@H](C(=O)O)[C@H](O)c1ccc(O)c(O)c1 [Droxidopa, (2S,3R)-2-amino-3-(3,4-dihydroxyphenyl)-3-hydroxypropanoic acid]
Acute oral LD50 (dogs): more than 5 g/kg
Solubility: ≥ 3 mg/mL
Stability in alkaline medium (alkaline medium): highly unstable
Solubility in dilute HCl (dilute HCl): Soluble
Solubility in organic solvents (methanol, glacial acetic acid, ethanol, acetone, chloroform): Practically insoluble
Solubility in water (water): Slightly soluble
Acute oral LD50 (rats): more than 5 g/kg
Acute oral LD50 (monkeys): more than 5 g/kg
Cmax ([1]; in vivo): 3.16 µg/mL
Elimination half life ([1]; in vivo): 2.5 h
Half-life ([1]; in vivo): 2 to 3 h
Route of elimination ([1]; in vivo): mainly eliminated through urine
Tmax ([1]; in vivo): 1 to 4 h
Volume of distribution ([1]; in vivo): 200 L
Oral bioavailability ([1]; oral): 90%
Hepatotoxicity (patients; human, in vivo): not found
Side effects, share of patients (patients; nausea, headache, dizziness, increased B.P, hallucination and anorexia): 0.78%
Protein binding [2]: 75%
Acute oral LD50 (mice): more than 5 g/kg
